Measurements from patent US20140137294A1, “GLUCOSINOLATE TRANSPORTER PROTEIN AND USES THEREOF” (UNIVERSITY OF COPENHAGEN, priority 2010, published 2014).

Tests used:
AtGTR1 [1] = molecular target: T1, AtGTR1 (Arabidopsis thaliana, UniProt Q944G5); assay: Substrate-induced currents in voltage-clamped Xenopus oocytes expressing AtGTR1; format: cell-based; settings: AtGTR1
T1 construct: A library of Arabidopsis transporters available as full length cDNAs from the RIKEN bioresource center; expressed in transfected cells; host or cells: Xenopus oocytes injected with in vitro transcribed cRNA
T1 sequence (Q944G5 31-636 limits assumed): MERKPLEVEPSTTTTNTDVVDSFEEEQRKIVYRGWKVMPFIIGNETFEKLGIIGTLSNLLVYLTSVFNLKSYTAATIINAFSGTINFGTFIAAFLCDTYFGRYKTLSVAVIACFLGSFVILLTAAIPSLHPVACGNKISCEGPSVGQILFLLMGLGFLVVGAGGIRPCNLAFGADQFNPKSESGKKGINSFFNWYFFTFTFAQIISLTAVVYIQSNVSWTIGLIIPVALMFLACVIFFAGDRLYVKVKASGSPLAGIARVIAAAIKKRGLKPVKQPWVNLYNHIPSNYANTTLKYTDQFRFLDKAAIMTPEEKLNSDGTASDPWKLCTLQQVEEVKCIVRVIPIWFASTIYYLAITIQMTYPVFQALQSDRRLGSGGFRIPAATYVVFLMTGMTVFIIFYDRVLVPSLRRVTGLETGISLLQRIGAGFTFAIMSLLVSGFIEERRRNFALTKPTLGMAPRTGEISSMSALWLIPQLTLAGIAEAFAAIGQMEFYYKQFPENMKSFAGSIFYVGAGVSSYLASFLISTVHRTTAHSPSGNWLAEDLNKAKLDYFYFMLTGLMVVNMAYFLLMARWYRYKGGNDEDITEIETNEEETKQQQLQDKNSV

AtGTR1 [2] = molecular target: T1, AtGTR1; assay: Uptake of C14-labeled pOHBG in AtGTR1 expressing oocytes in presence of excess competitor; format: cell-based; settings: 50× excess unlabeled competitor, AtGTR1, pH 5
Protocol: FIG. 3: Biochemical analysis of AtGTR1 and 2 mediated GSL transport in Xenopus oocytes. A and B, pH dependence of AtGTR-mediated GSL transport. A, AtGTR2 mediated 4-MTB uptake measured by LC-MS analysis of oocyte extracts, n=3 oocytes. B, AtGTR1 currents induced by 1 mM 4-MTB were measured at different membrane potentials at pH 5 ([…]), pH 6 (♦), and pH 7 (▴). Currents were normalized to the current induced at pH 5 at −60 mV, error bars are SD, n=4 oocytes. C and D, kinetic analysis of AtGTR-mediated glucosinolate transport. […]
The substrate specificity investigations were extended to include substrates previously identified for the NRT/PTR transporter family namely di- and tripeptides and nitrate. […] However, perfusing with 1 mM NO3^− did result in currents but these amounted only to 1/10th of currents measured when perfusing with 100 μM 4-MTB (FIG. 3F). […]
For assays with radiolabeled substrates, single oocytes were ruptured in 100 μl 10% SDS in 4 ml scintillation vials by shaking for 20-30 minutes. 2.5 ml EcoScint™ scintillation fluid (National Diagnostics) was added, and imported compounds quantified by scintillation counting. For assays with unlabeled substrates, oocyte extracts were analysed by LC-MS. Oocytes were analyzed in batches of 5 oocytes per repetition. […]

`CSCCCC/C(=N/OS(=O)(=O)O)S[C@@H]1O[C@H](CO)[C@@H](O)[C@H](O)[C@H]1O` [4-MTB, 4-methylthiobutyl glucosinolate] was tested, and the inward current (AtGTR1 [1]; 100 μM substrate, pH 5, voltage clamped at −50 mV) was roughly 30 nA, the Km (AtGTR1 [1]; pH 5, clamped at −60 mV, Michaelis-Menten) was 20 ± 1.2 µM and the “effect on uptake of 40 μM C14-labeled pOHBG” value (AtGTR1 [2]) was “reduced the uptake of pOHBG to background levels”.
